Experimental data as given in patent US8916567B2, “Certain crystalline hydrates, pharmaceutical compositions thereof and methods for preparation and use thereof” (Universal Technology Alliance, Inc., priority 2009, dated 2014).
Read-outs that look alike come from different tables or passages of the source.

How the values were obtained:
E. feacalis = assay: Minimum inhibitory concentration (MIC) in vitro, agar dilution method; assay type: cell-based; conditions: hydrate
Outline: (§1)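 Clinical isolates collected in Sichuan and Beijing (2007–2008) were tested by CLSI/NCCLS agar dilution. Compounds were dissolved in DMSO and diluted in sterile distilled water; MIC50, MIC90 and MIC range across strains were derived.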

E. feacium = assay: as above; assay type: cell-based
Outline: as §1

S. epidermidis MRSE = assay: as above; assay type: cell-based; conditions: hydrate
Outline: as §1

S. epidermidis MSSE = assay: as above; assay type: cell-based
Outline: as §1

[1] = test system: Staphylococcus aureus MRSA; assay: as above; assay type: cell-based
Outline: as §1

[2] = test system: Staphylococcus aureus MSSA; assay: as above; assay type: cell-based
Outline: as §1

Staphylococcus aureus = assay: Minimum inhibitory concentration (MIC) in vitro, agar dilution method, quality control strain; assay type: cell-based; conditions: strain S. AT C C25923 (Table 7 No. 1); hydrate
Outline: as §1

[3] = Stability under high temperature and high humidity (relative humidity 75%, 40° C.); assay type: physicochemical; conditions: for Related substances (%): by HPLC; for Related substances (%) / TGA (%): hydrate; for TGA (%): water content by TGA
Description: In order to further evaluate the effect of temperature, humidity and light on the quality of the crystalline compounds of the present disclosure, the hydrates were placed in a dessicator with a relative humidity of 75% and at a constant temperature of 40° C. The samples were then collected at 1, 2, 3, and 6 months. Results are shown in Tables 10-14, wherein the “related substances” mean all of the ingredients in a sample except the active material. The content of the related substances in a sample was measure by HPLC in accordance to the Chinese Pharmacopeia (2005 edition, Part II, Appendix V D).

[4] = E. feacalis (5 strains), clinically isolated
[5] = E. feacium (5 strains), clinically isolated, hydrate
[6] = S. ep MRSE (10 strains), clinically isolated
[7] = S. ep MSSE (10 strains), clinically isolated, hydrate
[8] = S. MRSA (10 strains), clinically isolated, hydrate
[9] = S. MSSA (11 strains), clinically isolated, hydrate

SMILES: CC(=O)NC[C@H]1CN(c2ccc(N3CCN(c4ccccc4)CC3)c(F)c2)C(=O)O1 [½ hydrate, (S)—[N-3-(3′-fluoro-4′-(4″-phenylpiperazinyl))phenyl-2-oxo-5-oxazolidinyl]methyl acetamide 1/2 hydrate]
- MIC50 (E. feacalis; [4]): 0.125 µg/mL
- MIC90 (E. feacalis; [4]): 0.25 µg/mL
- MICrange (E. feacalis; [4]): 0.06 to 0.25 µg/mL
- MIC (E. feacalis; strain Efa 54 (Table 8 No. 20)): 0.06 µg/mL
- MIC (E. feacalis; strain Efa 116 (Table 8 No. 16)): 0.25 µg/mL
- MIC (E. feacalis; strain Efa 3006 (Table 8 No. 18)): 0.06 µg/mL
- MIC (E. feacalis; strain Efa 33748 (Table 8 No. 17)): 0.25 µg/mL
- MIC50 (E. feacium; [5]): 0.5 µg/mL
- MIC90 (E. feacium; [5]): 1 µg/mL
- MICrange (E. feacium; [5]): 0.25 to 1 µg/mL
- MIC (E. feacium; strain Efm 98 (Table 8 No. 21), hydrate): 0.25 µg/mL
- MIC (E. feacium; strain Efm 171 (Table 8 No. 25), hydrate): 0.25 µg/mL
- MIC (E. feacium; strain Efm 197 (Table 8 No. 22)): 0.5 µg/mL
- MIC (E. feacium; strain Efm N3 (Table 8 No. 23), hydrate): 0.5 µg/mL
- MIC (E. feacium; strain Efm N4 (Table 8 No. 24), hydrate): 1 µg/mL
- MIC50 (S. epidermidis MRSE; [6]): 0.25 µg/mL
- MIC90 (S. epidermidis MRSE; [6]): 0.25 µg/mL
- MICrange (S. epidermidis MRSE; [6]): 0.25 µg/mL
- MIC (S. epidermidis MRSE; strain S. ep MRSE4 (Table 8 No. 9)): 0.25 µg/mL
- MIC (S. epidermidis MRSE; strain S. ep MRSE20 (Table 8 No. 6)): 0.25 µg/mL
- MIC (S. epidermidis MRSE; strain S. ep MRSE87 (Table 8 No. 13)): 0.25 µg/mL
- MIC (S. epidermidis MRSE; strain S. ep MRSE90 (Table 8 No. 10)): 0.25 µg/mL
- MIC (S. epidermidis MRSE; strain S. ep MRSE101 (Table 8 No. 7)): 0.25 µg/mL
- MIC (S. epidermidis MRSE; strain S. ep MRSE105 (Table 8 No. 11)): 0.25 µg/mL
- MIC (S. epidermidis MRSE; strain S. ep MRSE140 (Table 8 No. 14)): 0.25 µg/mL
- MIC (S. epidermidis MRSE; strain S. ep MRSE142 (Table 8 No. 12)): 0.25 µg/mL
- MIC (S. epidermidis MRSE; strain S. ep MRSE210 (Table 8 No. 15)): 0.25 µg/mL
- MIC (S. epidermidis MRSE; strain S. ep MRSE211 (Table 8 No. 8)): 0.25 µg/mL
- MIC90 (S. epidermidis MSSE; [7]): 0.25 µg/mL
- MICrange (S. epidermidis MSSE; [7]): 0.06 to 0.25 µg/mL
- MIC50 (S. epidermidis MSSE; Staphylococcus epidermidis, S. ep MSSE (10 strains), clinically isolated, read-out: MIC50): 0.25 µg/mL
- MIC (S. epidermidis MSSE; Staphylococcus epidermidis, strain S. ep MSSE113 (Table 7 No. 24), read-out: MIC): 0.25 µg/mL
- MIC (S. epidermidis MSSE; Staphylococcus epidermidis, strain S. ep MSSE118 (Table 8 No. 2), read-out: MIC): 0.25 µg/mL
- MIC (S. epidermidis MSSE; Staphylococcus epidermidis, strain S. ep MSSE140 (Table 8 No. 3), read-out: MIC): 0.25 µg/mL
- MIC (S. epidermidis MSSE; strain S. ep MSSE87 (Table 7 No. 23), hydrate): 0.06 µg/mL
- MIC (S. epidermidis MSSE; strain S. ep MSSE88 (Table 8 No. 5), hydrate): 0.25 µg/mL
- MIC (S. epidermidis MSSE; strain S. ep MSSE116 (Table 7 No. 25), hydrate): 0.25 µg/mL
- MIC (S. epidermidis MSSE; strain S. ep MSSE119 (Table 7 No. 27), hydrate): 0.25 µg/mL
- MIC (S. epidermidis MSSE; strain S. ep MSSE137 (Table 8 No. 4), hydrate): 0.25 µg/mL
- MIC (S. epidermidis MSSE; strain S. ep MSSE142 (Table 7 No. 26), hydrate): 0.125 µg/mL
- MIC (S. epidermidis MSSE; strain S. ep MSSE153 (Table 8 No. 1), hydrate): 0.25 µg/mL
- MIC50 [1, 8]: 0.25 µg/mL
- MIC90 [1, 8]: 0.25 µg/mL
- MICrange [1, 8]: 0.25 to 0.5 µg/mL
- MIC ([1]; Staphylococcus aureus, MRSA, strain S. MRSA 101 (Table 7 No. 14), read-out: MIC): 0.5 µg/mL
- MIC ([1]; Staphylococcus aureus, MRSA, strain S. MRSA 201 (Table 7 No. 13), read-out: MIC): 0.5 µg/mL
- MIC ([1]; Staphylococcus aureus, MRSA, strain S. MRSA B27 (Table 7 No. 21), read-out: MIC): 0.25 µg/mL
- MIC ([1]; strain S. MRSA 29 (Table 7 No. 15), hydrate): 0.25 µg/mL
- MIC ([1]; strain S. MRSA B105 (Table 7 No. 17), hydrate): 0.25 µg/mL
- MIC ([1]; strain S. MRSA B143 (Table 7 No. 19), hydrate): 0.25 µg/mL
- MIC ([1]; strain S. MRSA B151 (Table 7 No. 20), hydrate): 0.25 µg/mL
- MIC ([1]; strain S. MRSA B164 (Table 7 No. 16), hydrate): 0.25 µg/mL
- MIC ([1]; strain S. MRSA B199 (Table 7 No. 22), hydrate): 0.25 µg/mL
- MIC ([1]; strain S. MRSA B617 (Table 7 No. 18), hydrate): 0.25 µg/mL
- MIC50 [2, 9]: 0.25 µg/mL
- MIC90 [2, 9]: 0.25 µg/mL
- MICrange [2, 9]: 0.25 to 0.5 µg/mL
- MIC ([2]; Staphylococcus aureus, MSSA, strain S. MSSA 195 (Table 7 No. 6), read-out: MIC): 0.5 µg/mL
- MIC ([2]; Staphylococcus aureus, MSSA, strain S. MSSA 201 (Table 7 No. 11), read-out: MIC): 0.25 µg/mL
- MIC ([2]; Staphylococcus aureus, MSSA, strain S. MSSA 466 (Table 7 No. 8), read-out: MIC): 0.25 µg/mL
- MIC ([2]; Staphylococcus aureus, MSSA, strain S. MSSA 519 (Table 7 No. 9), read-out: MIC): 0.5 µg/mL
- MIC ([2]; strain S. MSSA 123 (Table 7 No. 3), hydrate): 0.25 µg/mL
- MIC ([2]; strain S. MSSA 187 (Table 7 No. 7), hydrate): 0.25 µg/mL
- MIC ([2]; strain S. MSSA 195 (Table 7 No. 12), hydrate): 0.25 µg/mL
- MIC ([2]; strain S. MSSA 232 (Table 7 No. 2), hydrate): 0.25 µg/mL
- MIC ([2]; strain S. MSSA 275 (Table 7 No. 10), hydrate): 0.25 µg/mL
- MIC ([2]; strain S. MSSA 520 (Table 7 No. 4), hydrate): 0.25 µg/mL
- MIC ([2]; strain S. MSSA 580 (Table 7 No. 5), hydrate): 0.25 µg/mL
- MIC (Staphylococcus aureus): 0.25 µg/mL
- Characters ([3]; 0 month): White powder
- Characters ([3]; 1 month): White powder
- Characters ([3]; 2 months): White powder
- Characters ([3]; 3 months): White powder
- Characters ([3]; 6 months): White powder
- Related substances (%) ([3]; 0 month): 0.90%
- Related substances (%) ([3]; 1 month): 0.88%
- Related substances (%) ([3]; 2 months): 0.92%
- Related substances (%) ([3]; 3 months): 0.90%
- Related substances (%) ([3]; 6 months): 0.94%
- TGA (%) ([3]; 0 month): 2.14%
- TGA (%) ([3]; 1 month): 2.15%
- TGA (%) ([3]; 2 months): 2.16%
- TGA (%) ([3]; 3 months): 2.20%
- TGA (%) ([3]; 6 months): 2.10%
